Laboratory results as given in patent publication US20090111177A1, “Maintenance of Embryonic Stem Cells by the GSK-3 Inhibitor 6-Bromoindirubin-3'-Oxime” (THE ROCKEFELLER UNIVERSITY, priority 2003, published 2009).

Assays:
HESCs (H1, BGN1) = assay: Feeder-free culture of HESCs, undifferentiated morphology; assay type: cell-based, human; conditions: for morphology / undifferentiated phenotype of HESCs: feeder-free, non-conditioned medium, 6-bromoindirubin-3′-oxime and Me analogue 2 μM, LiCl 5 mM, Wnt3a protein
Protocol: (§1) Cell culture. Human embryonic stem cells (HESCs) lines were provided by WiCell Research Institute (H1 line)^5 and BresaGen Inc. (BGN1 and BGN2 lines). H1 cells were cultivated on irradiated mouse embryonic fibroblasts (MEFs) in medium consisting of 80% DMEM/F12 medium, 20% knockout serum replacement (KSR), 1 mM L-glutamine, 1% non-essential amino acids, 0.1 mM β-mercaptoethanol, and 4 ng/ml basic FGF (all from Invitrogen). […] Subsequently, HESCs were cultured on Matrigel (BD biosciences) in medium conditioned by MEFs, and passaged several times until colonies became free from contaminating MEFs as described before^9.

CJ-GFP cells (MESCs) = assay: Low-density culture of CJ-GFP MESCs without LIF, morphology; assay type: cell-based, mouse; conditions: 1 μM; 7 d plus 5 d at low density; data not shown for Me analogue
Protocol: Teratoma formation. We grew CJ-GFP cells at a low density (500 cells/cm^2) on gelatin-coated 10 cm dishes in medium containing 6-bromoindirubin-3′-oxime 1 μM for 7 d, then passaged cells at the same density and cultured under the same condition another 5 d to further enforce differentiation of cells.

[1] = tested on: canonical Wnt pathway (TCF binding sites, TopFlash); assay: TopFlash/FopFlash luciferase reporter assay in CJ7 cells (MESCs); assay type: cell-based, mouse; conditions: CJ7 cells (MESCs); FIG. 2b
Protocol: (§2) Luciferase assay. […] Test compounds were added 24 hrs after transfection. Following incubation for 24 hrs, cells were harvested, and analyzed by the dual luciferase reporter assay system (Promega) using Lumat (Berthold Technologies). Each value was standardized by Renilla luciferase activity.
The canonical Wnt signal occurs through binding of the Wnt protein to the Frizzled receptor at cell surface. It is followed by inactivation of GSK-3, leading to accumulation of β-catenin in the nucleus that activates the transcription of Wnt target genes in collaboration with TCFs^18,19. Alternatively, Wnt signaling can be activated by direct, intracellular inhibition of the GSK-3 function using specific inhibitors^20. […] First we examined whether mouse and human ESCs were capable of transducing Wnt signaling under the influence of 6-bromoindirubin-3′-oxime. […] We then evaluated expression of β-catenin at the cellular level as a read-out of the activation status of the canonical Wnt pathway in HESCs.

Rex-1 promoter [2] = assay: Rex-1 luciferase reporter assay in CJ7 cells; assay type: cell-based, mouse; conditions: CJ7 cells; compared to LIF-treated cells
Source text: Nat Biotechnol 20, 87-90), a small fragment containing the TCF binding sites and the cFos promoter in pTopFlash was excised by XbaI digestion, and cloned into pcDNA3-Venus in which Venus was introduced into the multiple cloning site between BamHI and EcoRI of the pcDNA3 vector (Invitrogen) whose CMV promoter was eliminated by BglII and HindIII digestion. […] To generate the Rex-1-Venus reporter construct, the Rex-1 promoter region was cloned into pcDNA3-Venus.
as §2

Oct-3/4 = Oct-3/4 immunocytochemistry in HESCs; assay type: cell-based, human; conditions: HESCs in non-conditioned medium; FIG. 4c
Protocol: as §1
Immunofluorescence. Cells were fixed in 4% paraformaldehyde for 20 min at room temperature and incubated overnight at 4° C. with primary antibodies against Oct-4 (BD Biosciences), β-catenin (BD Biosciences), Tuj-1 (BAbCO), cytokeratin (Sigma), glial fibrillary acidic protein, GFAP, (Dako), smooth muscle actin (Research Diagnostics Inc), α-fetoprotein (α-FP, Cell Sciences) and Tromal (Developmental Studies Hybridoma Bank). For nuclear localization analysis, the fixed samples were subjected to fluorescent digital confocal imaging analysis using a Zeiss LSM 510 confocal microscope (Carl Zeiss). For mouse embryonic tissue sections, mid gestation embryos were fixed in 4% paraformaldehyde followed by paraffin embedding and tissue sectioning. After deparaffinization, tissue sections were incubated with a GFP-specific antibody (Molecular Probe) at 4° C. overnight. Antigens were localized by using goat anti-mouse IgG conjugated to Cy3 or goat anti-rabbit IgG conjugated to Cy2 (Zymed laboratories). For the quantitative image analysis, fluorescent images from triplicate samples were taken by the Discovery1 system (Universal Imaging Corporation). The fluorescent objects were selected by the threshold function and evaluated in five regions of each well by quantification of pixel intensities and the object size by using MetaMorph software (Universal Imaging Corporation).

GSK-3 = conditions: from reference 10; cited from earlier work
β-catenin = β-catenin immunofluorescence confocal analysis in HESCs; assay type: cell-based, human; conditions: compared to non-conditioned medium treated cells, FIG. 2c
Protocol: as §1
Immunofluorescence. […] For the quantitative image analysis, fluorescent images from triplicate samples were taken by the Discovery1 system (Universal Imaging Corporation). The fluorescent objects were selected by the threshold function and evaluated in five regions of each well by quantification of pixel intensities and the object size by using MetaMorph software (Universal Imaging Corporation).

Rex-1 promoter [3] = assay: Rex-1 YFP reporter line CJRex-Y (imaging / FACS); assay type: cell-based, mouse; conditions: CJRex-Y cells, 5 d
Protocol: Generation of stable mouse ES lines. CJ7 ES cells were transfected with pRex-1-Venus, pTY or pCAG-HygEGFP by using Lipofectamine 2000 (Invitrogen) followed by G418 (Invitrogen) selection at 200 μg/ml (for CJRex-Y or CJ-TY) or hygromycine (Invitrogen) selection at 600 μg/ml (for CJ-GFP). Two weeks after the drug selection, a number of single colonies were picked up, expanded and used for the further analyses.
FACS analysis of MESCs. We cultured CJRex-Y cells at a low density (500 cells/cm^2) on gelatin-coated 10 cm dishes in mouse ES cell medium alone, medium containing LIF, medium conditioned from wild type L cells or medium conditioned from Wnt3a-L cells (ATCC) for 5 days. The Wnt3a conditioned medium was prepared according to the provider's protocol. Cells were harvested, resuspended in mouse ES medium and subjected to FACS analysis using FACSVantage SE system (BD Biosciences).

cyclin D1 = cyclin D1 immunofluorescence in HESCs; assay type: cell-based, human; conditions: HESCs (BGN2); non-CM; 6-bromoindirubin-3′-oxime 1.0 μM or Wnt3a protein 100 ng; FIG. 7
Protocol: Immunofluorescence. HESCs were grown in conditioned medium (CM), non-CM, non-CM containing Me 6-bromoindirubin-3′-oxime (1.0 μM), non-CM containing 6-bromoindirubin-3′-oxime (1.0 μM) or non-CM containing recombinant mouse Wnt3a protein (100 ng/ml, R&D systems) for 5 d. Cells were fixed in 4% paraformaldehyde for 20 min at room temperature and incubated overnight at 4° C. with primary antibodies against cyclin D1 (Santa Cruz Technology, Santa Cruz, Calif.). Antigens were localized by using goat anti-rabbit IgG conjugated to Cy3 (Zymed laboratories).

[Cl-].[Li+] [LiCl, reference compound]
toxicity to HESCs (HESCs (H1, BGN1); 10 mM, FIG. 4c): substantial toxicity | morphology / undifferentiated phenotype of HESCs (HESCs (H1, BGN1); 7 d): failed to maintain the undifferentiated phenotype

CN1C(=O)C(=C2Nc3ccccc3C2=NO)c2ccc(Br)cc21 [Me 6-bromoindirubin-3′-oxime, 1-methyl-6-bromoindirubin-3′-oxime, reference compound]
colony morphology of MESCs without LIF (CJ-GFP cells (MESCs)): large flat differentiated morphology | TopFlash reporter activity [1]: did not show any change in activity | morphology / undifferentiated phenotype of HESCs (HESCs (H1, BGN1); 7 d): fully flattened morphology | Rex-1 promoter activity (Rex-1 promoter [2]): slightly reduced | Oct-3/4 expression at the cellular level (Oct-3/4): remarkable reduction of Oct-3/4 expression | GSK-3 / kinase inhibition (GSK-3): kinase-inactive | nuclear accumulation of β-catenin (β-catenin): did not show obvious difference | colony morphology / cell shape (Rex-1 promoter [3]; FIG. 3b): flattened cell shape | Rex-1 transcriptional (YFP reporter) activity (Rex-1 promoter [3]; absence of LIF): substantially lower activity

Human-derived LIF: Human-derived LIF
prevention of HESC differentiation in non-conditioned medium (HESCs (H1, BGN1); LIF up to 2,000 to 3,000 U/ml, 7 d): failed to prevent the differentiation

Wnt3a
morphology / undifferentiated phenotype of HESCs (HESCs (H1, BGN1); 7 d): maintain compact undifferentiated colonies | Oct-3/4 expression at the cellular level (Oct-3/4): high level of Oct-3/4 expression | cyclin D1 expression (cyclin D1): up-regulated cyclin D1 expression
